Assay results as given in patent publication US8933103B2, “Pyridone derivatives” (Daiichi Sankyo Company, Limited, priority 2012, dated 2015).
pIC50: −log10 of the molar value.

Target: T1, AXL (fusion protein of amino acids 464-885 of the intracellular domain of human AXL with glutathione transferase) (Homo sapiens, UniProt P30530)
T1 sequence (P30530 464-885 isoform P30530-2): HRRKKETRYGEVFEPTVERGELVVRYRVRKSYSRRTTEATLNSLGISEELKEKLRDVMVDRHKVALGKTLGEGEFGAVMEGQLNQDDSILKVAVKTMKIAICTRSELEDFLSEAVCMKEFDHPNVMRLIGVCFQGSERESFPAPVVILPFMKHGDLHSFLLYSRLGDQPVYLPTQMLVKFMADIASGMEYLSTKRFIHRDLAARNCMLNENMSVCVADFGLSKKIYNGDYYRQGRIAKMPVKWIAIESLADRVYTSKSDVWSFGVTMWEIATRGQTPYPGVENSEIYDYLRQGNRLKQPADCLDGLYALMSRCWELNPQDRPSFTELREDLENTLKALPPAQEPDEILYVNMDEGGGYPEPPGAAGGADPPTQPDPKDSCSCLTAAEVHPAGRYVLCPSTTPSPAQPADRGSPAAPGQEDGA
Experiment: Cell-Free Axl Kinase Inhibitory Activity
Procedure: Next, the test compound was diluted with DMSO, and 1 μl of this diluted solution was added to each well.
Five microliters of this solution were added to each well to initiate a kinase reaction. The plate was incubated at 28° C. for 1.5 hours, and 40 μl of a termination buffer (100 mM HEPES (pH 7.4), 0.015% Brij-35, 40 mM EDTA, 0.1% Coating Reagent 3) was added to each well to terminate the reaction.
The substrate peptide and the phosphorylated peptide in the reaction solution were separated and quantified by EZ Reader II (Caliper Life Sciences).
IC50 was determined from inhibition data for 12 test compound concentrations by nonlinear regression (four-parameter logistic regression) using the following formula.

A pIC50 of 8.00 to 9.00 was found for `CC(O)Cn1cc(-c2cnc(N)c(-c3ccc(NC(=O)c4cn(CCF)cc(-c5ccc(F)cc5)c4=O)cc3)c2)cn1` (racemic) [Example 63, N-(4-{2-Amino-5-[1-(2-hydroxypropyl)-1H-pyrazol-4-yl]pyridin-3-yl}phenyl)-1-(2-fluoroethyl)-5-(4-fluorophenyl)-4-oxo-1,4-dihydropyridine-3-carboxamide] in this work.

A pIC50 of 8.00 to 9.00 was found for `COc1ccc(-c2cnc(N)c(-c3ccc(NC(=O)c4cn(C)cc(-c5ccc(F)cc5)c4=O)cc3)c2)cc1OC` [Example 2, N-{4-[2-Amino-5-(3,4-dimethoxyphenyl)pyridin-3-yl]phenyl}-5-(4-fluorophenyl)-1-methyl-4-oxo-1,4-dihydropyridine-3-carboxamide] in this work.

A pIC50 of 9.00 to 10.00 was found for `CCn1cc(C(=O)Nc2ccc(-c3cc(-c4ccc(OC)c(OC)c4)cnc3N)cc2)c(=O)c(-c2ccc(F)cc2)c1` [Example 3, N-{4-[2-Amino-5-(3,4-dimethoxyphenyl)pyridin-3-yl]phenyl}-1-ethyl-5-(4-fluorophenyl)-4-oxo-1,4-dihydropyridine-3-carboxamide] in this work.

A pIC50 of 8.00 to 9.00 was found for `COc1ccc(-c2cnc(N)c(-c3ccc(NC(=O)c4cn(C(C)C)cc(-c5ccc(F)cc5)c4=O)cc3)c2)cc1OC` [Example 4, N-{4-[2-Amino-5-(3,4-dimethoxyphenyl)pyridin-3-yl]phenyl}-5-(4-fluorophenyl)-4-oxo-1-(propan-2-yl)-1,4-dihydropyridine-3-carboxamide] in this work.

A pIC50 of 9.00 to 10.00 was found for `COCCn1cc(C(=O)Nc2ccc(-c3cc(-c4ccc(OC)c(OC)c4)cnc3N)cc2)c(=O)c(-c2ccc(F)cc2)c1` [Example 5, N-{4-[2-Amino-5-(3,4-dimethoxyphenyl)pyridin-3-yl]phenyl}-5-(4-fluorophenyl)-1-(2-methoxyethyl)-4-oxo-1,4-dihydropyridine-3-carboxamide] in this work.

A pIC50 of 8.00 to 9.00 was found for `COc1ccc(-c2cnc(N)c(-c3ccc(NC(=O)c4cn(CCF)cc(-c5ccc(F)cc5)c4=O)cc3)c2)cc1OC` [Example 8, N-{4-[2-Amino-5-(3,4-dimethoxyphenyl)pyridin-3-yl]phenyl}-1-(2-fluoroethyl)-5-(4-fluorophenyl)-4-oxo-1,4-dihydropyridine-3-carboxamide] in this work.

A pIC50 of 8.00 to 9.00 was found for `COc1ccc(-c2cnc(N)c(-c3ccc(NC(=O)c4cn(Cc5ccccc5)cc(-c5ccc(F)cc5)c4=O)cc3)c2)cc1OC` [Example 10, N-{4-[2-Amino-5-(3,4-dimethoxyphenyl)pyridin-3-yl]phenyl}-1-benzyl-5-(4-fluorophenyl)-4-oxo-1,4-dihydropyridine-3-carboxamide] in this work.

A pIC50 of 9.00 to 10.00 was found for `COc1ccc(-c2cnc(N)c(-c3ccc(NC(=O)c4cn(Cc5ccc(F)cc5)cc(-c5ccc(F)cc5)c4=O)cc3)c2)cc1OC` [Example 11, N-{4-[2-Amino-5-(3,4-dimethoxyphenyl)pyridin-3-yl]phenyl}-1-(4-fluorobenzyl)-5-(4-fluorophenyl)-4-oxo-1,4-dihydropyridine-3-carboxamide] in this work.

A pIC50 of 9.00 to 10.00 was found for `COc1ccc(-c2cnc(N)c(-c3ccc(NC(=O)c4cn(Cc5ccccn5)cc(-c5ccc(F)cc5)c4=O)cc3)c2)cc1OC` [Example 12, N-{4-[2-Amino-5-(3,4-dimethoxyphenyl)pyridin-3-yl]phenyl}-5-(4-fluorophenyl)-4-oxo-1-(pyridin-2-ylmethyl)-1,4-dihydropyridine-3-carboxamide] in this work.

A pIC50 of 9.00 to 10.00 was found for `COc1ccc(-c2cnc(N)c(-c3ccc(NC(=O)c4cn(Cc5ccncc5)cc(-c5ccc(F)cc5)c4=O)cc3)c2)cc1OC` [Example 13, N-{4-[2-Amino-5-(3,4-dimethoxyphenyl)pyridin-3-yl]phenyl}-5-(4-fluorophenyl)-4-oxo-1-(pyridin-4-ylmethyl)-1,4-dihydropyridine-3-carboxamide] in this work.

A pIC50 of 9.00 to 10.00 was found for `CNC(=O)Cn1cc(C(=O)Nc2ccc(-c3cc(-c4ccc(OC)c(OC)c4)cnc3N)cc2)c(=O)c(-c2ccc(F)cc2)c1` [Example 15, N-{4-[2-Amino-5-(3,4-dimethoxyphenyl)pyridin-3-yl]phenyl}-5-(4-fluorophenyl)-1-[2-(methylamino)-2-oxoethyl]-4-oxo-1,4-dihydropyridine-3-carboxamide] in this work.
